Reference: patent US8552202B2, “Furo[3, 2-B] pyrrol-3-ones as cathespin S inhibitors” (Amura Therapeutics Limited, priority 2008, dated 2013)

Assays:
Type in all cases: biochemical
[1] = biological target: Human liver cathepsin B (Homo sapiens (Human), UniProt P07858); experiment: In vitro cathepsin Ki inhibition measurements, cathepsin B; details: read-out: In vitro Ki (nM) vs Cath B
Experimental: (§1) Stock solutions of substrate or inhibitor were made up to 10 mM in 100% dimethylsulfoxide (DMSO) (Rathburns, Glasgow, U.K.) and diluted as appropriately required. In all cases the DMSO concentration in the assays was maintained at less than 1% (vol./vol.). The equilibrium inhibition constants (Ki^ss) for each compound were measured under steady-state conditions monitoring enzyme activity as a function of inhibitor concentration. The values were calculated on the assumption of pure competitive behaviour (Cornish-Bowden, A. Fundamentals of enzyme kinetics Portland Press; 1995, 93-128.).
Human liver cathepsin B (0.25 nM final; Merck Biosciences), was routinely assayed in 10 mM bis-tris propane; pH 6.5 containing 1 mM EDTA, 5 mM 2-mercaptoethanol, 1 mM CaCl2 and 60 μM Z-Phe-Arg-AMC ([S]=KM) (Bachem, Weil am Rhein, Germany).
(§2) The apparent inhibition constant (Ki) for each compound was determined on the basis that inhibition was reversible and occurred by a pure-competitive mechanism. The Ki values were calculated, from the dependence of enzyme activity as a function of inhibitor concentration, by direct regression analysis (Prism v 3.02) using Equation 2 (Cornish-Bowden, A., 1995.).
(§3) In situations where the apparent dissociation constant (Ki^app) approached the enzyme concentrations, the Ki^app values were calculated using a quadratic solution in the form described by Equation 3 (Morrison, J. F. Trends Biochem. Sci., 7, 102-105, 1982; Morrison, J. F. Biochim. Biophys. Acta. 185, 269-286, 1969: Stone, S. R. and Hofsteenge, J. Biochemistry, 25, 4622-4628, 1986).
In Equation 3 ‘vi’ is the observed residual activity, ‘F’ is the difference between the maximum activity (i.e. in the absence of inhibitor) and minimum enzyme activity, ‘Eo’ is the total enzyme concentration, ‘Ki^app’ is the apparent dissociation constant and ‘Io’ is the inhibitor concentration. Curves were fitted by non-linear regression analysis (Prism) using a fixed value for the enzyme concentration. Equation 4 was used to account for the substrate kinetics, where ‘Ki’ is the inhibition constant, ‘[So]’ is the initial substrate concentration and ‘KM^app’ is the apparent macroscopic binding (Michaelis) constant for the substrate (Morrison, 1982).

[2] = biological target: Human recombinant cathepsin V (Homo sapiens (Human), UniProt O60911); experiment: In vitro cathepsin Ki inhibition measurements, cathepsin V; details: read-out: In vitro Ki (nM) vs Cath V
Experimental: as §1
Human recombinant cathepsin V (0.25 nM final, Merck Biosciences) was routinely assayed in 100 mM sodium acetate; pH 5.5 containing 10 mM L-cysteine, 0.001% (vol./vol.) zwittergent 3-12 (Merck Biosciences) and 5 μM Z-Leu-Arg-AMC (KM=0.5 μM) (Amura).
as §2, §3
(§4) Curves were fitted by non-linear regression analysis (Prism) using a fixed value for the enzyme concentration. Equation 4 was used to account for the substrate kinetics, where ‘Ki’ is the inhibition constant, ‘[So]’ is the initial substrate concentration and ‘KM^app’ is the apparent macroscopic binding (Michaelis) constant for the substrate (Morrison, 1982).

[3] = biological target: Human recombinant cathepsin S (Homo sapiens (Human), UniProt P25774); experiment: In vitro cathepsin Ki inhibition measurements, cathepsin S; details: for selectivity against other mammalian cathepsins (in words): cathepsin S over other mammalian cathepsins; for Ki: read-out: In vitro Ki (nM) vs Cath S
Experimental: as §1, §2, §3, §4

[4] = biological target: Human liver cathepsin L (Homo sapiens (Human), UniProt P07711); experiment: In vitro cathepsin Ki inhibition measurements, cathepsin L; details: read-out: In vitro Ki (nM) vs Cath L
Experimental: as §1
Human liver cathepsin L (0.25 nM final, Athens Research and Technology, GA, USA) was routinely assayed in 10 mM bis-tris propane; pH 6.5 containing 1 mM EDTA, 5 mM 2-mercaptoethanol, 1 mM CaCl2 and 4 μM Ac-Phe-Arg-AMC ([S]=KM) (Bachem).
as §2, §3, §4

[5] = biological target: Human recombinant cathepsin K (Homo sapiens (Human), UniProt P43235); experiment: In vitro cathepsin Ki inhibition measurements, cathepsin K; details: read-out: In vitro Ki (nM) vs Cath K
Experimental: as §1
Human recombinant cathepsin K (0.25 nM final; B. Turk, Josef, Stefan Institute, Ljubljana, Slovenia), was routinely assayed in 100 mM sodium acetate; pH 5.5 containing 1 mM EDTA, 10 mM L-cysteine and 1.8 μM Z-Leu-Arg-AMC ([S]=KM).
as §2, §3, §4

Human recombinant cathepsin S, sequence (P25774 115-331): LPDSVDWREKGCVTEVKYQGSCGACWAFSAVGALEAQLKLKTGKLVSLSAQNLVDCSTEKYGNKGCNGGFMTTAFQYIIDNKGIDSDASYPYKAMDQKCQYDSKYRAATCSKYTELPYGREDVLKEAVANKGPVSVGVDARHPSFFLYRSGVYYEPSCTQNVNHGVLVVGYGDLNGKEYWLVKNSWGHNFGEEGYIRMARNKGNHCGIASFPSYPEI
Human recombinant cathepsin K, sequence (P43235 115-329): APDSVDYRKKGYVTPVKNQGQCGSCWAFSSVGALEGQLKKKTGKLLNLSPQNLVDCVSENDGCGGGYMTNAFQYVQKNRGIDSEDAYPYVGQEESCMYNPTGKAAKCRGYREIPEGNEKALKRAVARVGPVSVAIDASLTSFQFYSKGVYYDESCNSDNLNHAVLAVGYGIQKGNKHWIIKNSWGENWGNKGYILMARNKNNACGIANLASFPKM
Human liver cathepsin L, sequence (P07711 114-333): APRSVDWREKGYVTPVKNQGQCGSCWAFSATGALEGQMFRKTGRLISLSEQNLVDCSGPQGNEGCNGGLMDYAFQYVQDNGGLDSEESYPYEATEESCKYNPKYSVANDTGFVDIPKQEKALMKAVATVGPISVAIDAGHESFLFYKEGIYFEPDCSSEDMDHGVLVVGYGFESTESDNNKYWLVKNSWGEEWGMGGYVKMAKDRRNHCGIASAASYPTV
Human recombinant cathepsin V, sequence (O60911 114-334): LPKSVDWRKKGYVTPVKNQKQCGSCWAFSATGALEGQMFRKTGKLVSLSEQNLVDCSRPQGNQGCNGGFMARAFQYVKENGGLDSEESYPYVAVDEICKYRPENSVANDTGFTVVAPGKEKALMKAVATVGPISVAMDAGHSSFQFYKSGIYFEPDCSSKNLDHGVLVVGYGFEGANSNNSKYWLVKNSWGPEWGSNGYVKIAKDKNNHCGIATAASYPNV

| Structure (SMILES) | Ki [1] | Ki [2] | selectivity against other mammalian cathepsins (in words) [3] | Ki [3] | improvement in in vitro potency against human cathepsin S ([3]; relative to Compound 7) | Ki [4] | Ki [5] | selectivity verses cathepsin K ([3]; cathepsin S over cathepsin K) | less potent verses cathepsin S ([3]; relative to EXAMPLE 1) | less potent verses cathepsin S ([3]; relative to EXAMPLE 2) | improvement in in vitro potency against human cathepsin S ([3]; relative to Compound 1) | improvement in in vitro potency against human cathepsin S ([3]; relative to prior art compound (38)) | selectivity verses cathepsin K (in words) ([3]; cathepsin S over cathepsin K) |
| --- | --- | --- | --- | --- | --- | --- | --- | --- | --- | --- | --- | --- | --- |
| CC1(C)CCC([C@H](NC(=O)c2cccc(-n3cnnn3)c2)C(=O)N2C[C@H](Cl)[C@H]3OCC(=O)[C@H]32)CC1 [EXAMPLE 3, N—((S)-2-((3aS,6S,6aS)-6-chloro-3-oxodihydro-2H-furo[3,2-b]pyrrol-4(5H,6H,6aH)-yl)-1-(4,4-dimethylcyclohexyl)-2-oxoethyl)-3-(1H-tetrazol-1-yl)benzamide] | > 10000 nM | 1700 nM | high selectivity | 12 nM | 15 fold | > 10000 nM | > 10000 nM | – | – | – | – | – | – |
| C[C@H]1CC[C@H]([C@H](NC(=O)c2cccc(-n3cnnn3)c2)C(=O)N2CC[C@H]3OCC(=O)[C@H]32)CC1 [Compound 10] | > 10000 nM | > 10000 nM | – | 79 nM | 2.2 fold | > 10000 nM | > 10000 nM | > 125 fold | – | – | – | – | – |
| C[C@H]1CC[C@H]([C@H](NC(=O)c2cccc(-n3cnnn3)c2)C(=O)N2C[C@H](Cl)[C@H]3OCC(=O)[C@H]32)CC1 [EXAMPLE 2, N—((S)-2-((3aS,6S,6aS)-6-chloro-3-oxodihydro-2H-furo[3,2-b]pyrrol-4(5H,6H,6aH)-yl)-1-((1r,4S)-4-methylcyclohexyl)-2-oxoethyl)-3-(1H-tetrazol-1-yl)benzamide] | > 10000 nM | > 10000 nM | high selectivity | 2.2 nM | 77 fold | > 10000 nM | > 8000 nM | – | – | – | – | – | – |
| C[C@H]1CC[C@H]([C@H](NC(=O)c2ccccc2)C(=O)N2C[C@@H](Cl)[C@H]3OCC(=O)[C@H]32)CC1 [Compound 6] | > 10000 nM | > 10000 nM | high selectivity | 75 nM | – | > 10000 nM | > 10000 nM | – | 15 fold | – | – | – | – |
| O=C(N[C@H](C(=O)N1C[C@H](Cl)[C@H]2OCC(=O)[C@H]21)C1CCCCC1)c1cccc(-n2ccnc2)c1 [Compound 13] | 440 nM | 170 nM | – | – | – | 270 nM | – | – | – | – | – | – | – |
| O=C(N[C@H](C(=O)N1CC[C@H]2OCC(=O)[C@H]21)C1CCCCC1)c1cccc(-n2cnnn2)c1 [Compound 7] | > 10000 nM | 5000 nM | – | – | – | > 6500 nM | – | – | – | – | – | – | – |
| C[C@H]1CC[C@H]([C@H](NC(=O)c2cccc(-n3cnnn3)c2)C(=O)N2C[C@H](F)[C@H]3OCC(=O)[C@H]32)CC1 [Compound 11] | > 10000 nM | > 10000 nM | high selectivity | 24 nM | – | > 10000 nM | > 10000 nM | – | – | 11 fold | – | – | – |
| O=C(N[C@H](C(=O)N1C[C@H](F)[C@H]2OCC(=O)[C@H]21)C1CCCCC1)c1cccc(-n2cnnn2)c1 [Compound 8] | 6000 nM | 2000 nM | – | – | 3.4 fold | 4000 nM | – | 6.8 fold | – | – | – | – | – |
| C[C@H]1CC[C@H]([C@H](NC(=O)c2cccc(-n3cnnn3)c2)C(=O)N2C[C@@H](Cl)[C@H]3OCC(=O)[C@H]32)CC1 [Compound 12] | > 10000 nM | > 10000 nM | high selectivity | 55 nM | – | > 10000 nM | > 10000 nM | – | – | 25 fold | – | – | – |
| O=C(N[C@H](C(=O)N1C[C@H](Cl)[C@H]2OCC(=O)[C@H]21)C1CCCCC1)c1cccc(-n2cnnn2)c1 [Compound 9] | 650 nM | 240 nM | – | – | 47 fold | > 1200 nM | – | 7.5 fold | – | – | – | – | – |
| C[C@H]1CC[C@H]([C@H](NC(=O)c2cccc(-n3ccnc3)c2)C(=O)N2C[C@H](F)[C@H]3OCC(=O)[C@H]32)CC1 [Compound 15] | > 10000 nM | > 10000 nM | – | 15 nM | – | > 10000 nM | > 10000 nM | – | – | – | – | – | – |
| CC1CCC([C@H](NC(=O)c2ccccc2)C(=O)N2CC[C@H]3OCC(=O)[C@H]32)CC1 (some centres unmarked) [Compound 4] | > 10000 nM | > 10000 nM | – | 72 nM | – | > 10000 nM | > 4800 nM | > 65 fold | – | – | 3 fold | – | – |
| O=C(N[C@H](C(=O)N1C[C@H](Cl)[C@H]2OCC(=O)[C@H]21)C1CCCCC1)c1ccccc1 [Compound 3] | 780 nM | 100 nM | – | – | – | 100 nM | – | 4 fold | – | – | 27 fold | – | – |
| O=C(N[C@@H](CC1CCCCC1)C(=O)N1CC[C@H]2OCC(=O)[C@H]21)c1ccccc1 [compound (38), reference compound] | > 10000 nM | 5700 nM | – | – | – | 1700 nM | > 4000 nM | – | – | – | – | – | – |
| C[C@H]1CC[C@H]([C@H](NC(=O)c2ccccc2)C(=O)N2C[C@H](F)[C@H]3OCC(=O)[C@H]32)CC1 [Compound 5] | > 10000 nM | > 10000 nM | high selectivity | 28 nM | – | > 10000 nM | > 10000 nM | – | 5.6 fold | – | – | – | – |
| C[C@H]1CC[C@H]([C@H](NC(=O)c2ccccc2)C(=O)N2C[C@H](Cl)[C@H]3OCC(=O)[C@H]32)CC1 [EXAMPLE 1, N—((S)-2-((3aS,6S,6aS)-6-chloro-3-oxodihydro-2H-furo[3,2-b]pyrrol-4(5H,6H,6aH)-yl)-1-((1r,4S)-4-methylcyclohexyl)-2-oxoethyl)benzamide] | > 10000 nM | > 10000 nM | high selectivity | 5 nM | – | 1400 nM | > 10000 nM | – | – | – | 45 fold | 111 fold | – |
| O=C(N[C@H](C(=O)N1C[C@H](F)[C@H]2OCC(=O)[C@H]21)C1CCCCC1)c1ccccc1 [Compound 2] | > 7000 nM | 700 nM | – | – | – | 580 nM | – | – | – | – | 3.8 fold | – | little selectivity |
| O=C(N[C@H](C(=O)N1C[C@@H](Cl)[C@H]2OCC(=O)[C@H]21)C1CCCCC1)c1cccc(-n2ccnc2)c1 [Compound 14] | 5000 nM | 1800 nM | – | – | – | 1900 nM | – | – | – | – | – | – | – |
| O=C(N[C@H](C(=O)N1CC[C@H]2OCC(=O)[C@H]21)C1CCCCC1)c1ccccc1 [Compound 1] | > 10000 nM | 1900 nM | – | – | – | 1250 nM | – | – | – | – | – | – | – |
| C[C@H]1CC[C@H]([C@H](NC(=O)c2cccc(-n3ccnc3)c2)C(=O)N2C[C@H](Cl)[C@H]3OCC(=O)[C@H]32)CC1 | 4000 nM | 3200 nM | – | 0.4 nM | – | 4500 nM | > 3000 nM | – | – | – | – | – | – |
